Measured values published in patent US20240156779A1, “SMALL MOLECULE ALLOSTERIC MODULATORS OF CLASS B GPCR, THE PTHR, AND METHOD TO IDENTIFY THEM” (University of Pittsburgh - Of the Commonwealth System of …, priority 2021, published 2024).
Substitutions are numbered along the chain they refer to. “Also recorded” adds a separate entry of the source.

Experiments:
PTHR [1] = target: T1, PTHR (Homo sapiens, UniProt Q03431); conditions: cited from earlier work
T1 sequence (Q03431 27-593): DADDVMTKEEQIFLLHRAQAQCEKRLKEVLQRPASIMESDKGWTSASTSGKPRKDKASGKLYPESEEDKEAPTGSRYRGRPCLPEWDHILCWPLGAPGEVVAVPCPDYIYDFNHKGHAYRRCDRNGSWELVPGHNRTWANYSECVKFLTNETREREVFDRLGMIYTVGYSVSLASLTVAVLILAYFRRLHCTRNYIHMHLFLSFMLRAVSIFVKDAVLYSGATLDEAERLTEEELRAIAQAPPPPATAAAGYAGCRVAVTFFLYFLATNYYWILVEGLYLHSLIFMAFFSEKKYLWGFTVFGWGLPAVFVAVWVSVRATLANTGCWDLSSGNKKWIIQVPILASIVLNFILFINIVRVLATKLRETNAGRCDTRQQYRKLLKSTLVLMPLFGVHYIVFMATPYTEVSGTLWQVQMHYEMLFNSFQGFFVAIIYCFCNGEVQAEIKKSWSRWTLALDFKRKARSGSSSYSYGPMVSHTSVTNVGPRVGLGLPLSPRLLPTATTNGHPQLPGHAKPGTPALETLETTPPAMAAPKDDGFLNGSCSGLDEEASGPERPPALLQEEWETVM

PTHR [2] = target: T1, PTHR; test: PTH-induced cAMP time courses (FRET sensor) in HEK293 cells stably expressing PTHR; format: cell-based; design: expressed in transfected cells; conditions: for inhibition of PTH-mediated cAMP production compared with Pitt12: 10 μM compound
[3] = target: b2-adrenergic receptor (b2AR) (Homo sapiens, UniProt P07550); test: cAMP production mediated by b2AR agonist isoproterenol; format: cell-based; conditions: in response to isoproterenol
[4] = target: vasopressin type 2 receptor (V2R) (Homo sapiens, UniProt P30518); test: vasopressin-mediated cAMP production; format: cell-based
[5] = target: T2, human PTH type 1 receptor (hPTHR) (Homo sapiens, UniProt Q03431); test: Concentration-response curves for cAMP (GloSensor) by PTH with Pitt molecules; format: cell-based; conditions: range of Pitt concentrations
T2 construct: expressed in transfected cells
T2 sequence (Q03431 27-593): T1 sequence (Q03431 27-593)

[6] = target: T3, PTHR association with G proteins (mGs, mGq) (Homo sapiens, UniProt Q03431); test: FRET time courses of PTHR-CFP interaction with mini-Gs and mini-Gq; format: cell-based; conditions: PTH-induced
T3 construct: expressed in transfected cells
T3 sequence (Q03431 27-593): T1 sequence (Q03431 27-593)
T3 sequence (P01270 32-65 partner limits assumed): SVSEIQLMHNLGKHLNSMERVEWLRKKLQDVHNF

recombinant PTHR = test: Intracellular Ca2+ release (Fluo-4) in response to PTH; format: cell-based; conditions: 100 nM PTH, 10 μM Pitt molecules
human PTHR mutant E180A = target: T4, human PTHR mutant E180A (Homo sapiens, UniProt Q03431, E180A); test: PTH-induced cAMP signaling of receptor mutant E180A; format: cell-based
T4 construct: HA
T4 sequence (Q03431 27-593 E180A): T1 sequence (Q03431 27-593) with E154A

human PTHR mutant R181A = target: T5, human PTHR mutant R181A (Homo sapiens, UniProt Q03431, R181A); test: PTH-induced cAMP signaling of receptor mutant R181A; format: cell-based
T5 construct: HA
T5 sequence (Q03431 27-593 R181A): T1 sequence (Q03431 27-593) with R155A

PTHR [7] = target: T1, PTHR; test: Radioligand receptor binding, membranes of GP-2.3 cells; design: expressed in transfected cells; host or cells: HEK-293-derived GP-2.3 cells (membranes)
[8] = 20 μmol/kg, 3 h after injection

Sequence of b2-adrenergic receptor (b2AR) (P07550 whole entry, species assumed): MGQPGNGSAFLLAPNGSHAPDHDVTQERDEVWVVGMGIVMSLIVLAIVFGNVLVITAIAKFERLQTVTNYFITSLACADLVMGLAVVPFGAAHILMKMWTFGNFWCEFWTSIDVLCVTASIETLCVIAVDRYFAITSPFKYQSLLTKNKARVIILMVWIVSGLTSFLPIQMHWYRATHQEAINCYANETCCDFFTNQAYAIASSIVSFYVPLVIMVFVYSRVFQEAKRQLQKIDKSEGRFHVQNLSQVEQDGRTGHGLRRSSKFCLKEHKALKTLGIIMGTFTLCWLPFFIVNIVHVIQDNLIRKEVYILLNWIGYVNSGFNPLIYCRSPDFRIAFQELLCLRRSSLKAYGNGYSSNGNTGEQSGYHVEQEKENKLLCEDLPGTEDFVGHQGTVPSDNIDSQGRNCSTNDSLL
Sequence of vasopressin type 2 receptor (V2R) (P30518 whole entry, species assumed): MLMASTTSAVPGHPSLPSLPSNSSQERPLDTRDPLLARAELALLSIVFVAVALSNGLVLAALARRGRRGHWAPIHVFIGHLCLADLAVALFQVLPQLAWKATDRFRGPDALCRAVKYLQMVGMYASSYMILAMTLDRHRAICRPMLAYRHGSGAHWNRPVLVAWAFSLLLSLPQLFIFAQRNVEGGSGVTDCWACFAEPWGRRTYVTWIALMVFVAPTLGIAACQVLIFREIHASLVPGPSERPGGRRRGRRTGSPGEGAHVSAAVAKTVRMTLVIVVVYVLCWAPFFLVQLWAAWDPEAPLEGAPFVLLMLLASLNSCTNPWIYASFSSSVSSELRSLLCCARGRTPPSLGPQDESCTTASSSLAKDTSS

For `Cc1cc(N2C(=O)NC(=O)C2(C)C)cc(C)c1CCS(=O)(=O)N1CCC2(CC1)N=C(c1ccc(OC(F)(F)F)cc1)NC2=O` [PCO371], the “mode of action at PTHR” value (PTHR [1]) is given as “orthosteric agonist”.

In the case of `O=C(O)[C@@H]1CN(C(=O)OCC2c3ccccc3-c3ccccc32)C[C@H]1c1ccccc1` [Pitt41], the “inhibition of PTH-mediated cAMP production compared with Pitt12” value (PTHR [2]; HEK293-PTHR) is reported as “more efficacious than Pitt12”.

With `Cc1ccc([C@@H]2CN(C(=O)OCC3c4ccccc4-c4ccccc43)C[C@H]2C(=O)O)cc1` [Pitt42] the “inhibition of PTH-mediated cAMP production compared with Pitt12” value (PTHR [2]; HEK293-PTHR) was “more efficacious than Pitt12”.

In the case of `CCCCn1c(O)c(C(=N)N)c(=O)n(CCCC)c1=O` [AH-3960], the “mode of action at PTHR” value (PTHR [1]) is given as “weak agonist”.

In the case of `COc1ccc([C@@H]2CN(C(=O)OCC3c4ccccc4-c4ccccc43)C[C@H]2C(=O)O)cc1` [Pitt12], the “effect on β2AR-mediated cAMP production” value [3] is reported as “no effect”, the “effect on vasopressin-mediated cAMP” value [4] is reported as “lack of effect” and the “effect on efficacy (Emax) of PTH to mediate cAMP increase” value [5] is reported as “blocked cAMP production by PTH; also recorded: marked reduction in efficacy”. The “G proteins association with the receptor” value [6] was “decrease in both the kinetics and magnitude”, the “PTH-mediated release of stored intracellular Ca2+” value (recombinant PTHR) was “noticeable reduction” and the “sensitivity of E180A mutant to modulation of PTH-induced cAMP” value (human PTHR mutant E180A) was “lost their ability to respond to negative modulation”. The “sensitivity of R181A mutant to modulation of PTH-induced cAMP” value (human PTHR mutant R181A) was “lost their ability to respond to negative modulation”, the “serum Ca2+ (sCa2+) level, compound alone” value (C57BL/6 mice; [8]) was “significantly reduced” and the “serum phosphate (sPi) level, compound alone” value (C57BL/6 mice; [8]) was “trend of reducing”. The “BUN/creatine ratio (kidney function and hydration status)” value (C57BL/6 mice; mouse, in vivo) was “lack of significant changes”, the “alteration of plasma membrane cAMP” value (PTHR [2]; 1 nM PTH) was “≈ 30%” and the “reduction of endosomal cAMP production” value (PTHR [2]; 1 nM PTH) was “≈ 70%”. For the same compound, the “effect on PTH-induced cAMP production (AUC of time course)” value (PTHR [2]; 1 nM PTH co-applied with 10 μM compound, HEK293-PTHR) was “distinguishably high potential to elicit negative effects”, the “sustained cAMP response on blockade of receptor internalization” value (PTHR [2]; cells expressing DynK44A, PTH with Pitt coapplied) was “moderately affected” and the “inhibitory binding constant (Ki), RG state” value (PTHR [7]; G-protein coupled (RG) state) was “in the μM range”. For the same compound, the “inhibitory binding constant (Ki), R0 state” value (PTHR [7]; G-protein uncoupled (R0) state, with GTPgS) was “in the μM range”.
